Results: US8865698B2, “Method of treatment using substituted pyrazolo[1,5-a]pyrimidine compounds” (Array BioPharma Inc., priority 2008, dated 2014)
Counter-ions that a name gives are not always drawn.

Target: histidine-tagged recombinant human TrkA, cytoplasmic domain (Homo sapiens (Human), UniProt P04629)
Test: TrkA ELISA Assay
Assay type: biochemical
Details: 2.5 nM TrkA, 500 μM ATP, 25 minutes; read-out: TrkA Elisa Enzyme IC50
Procedure: An enzyme-linked immunosorbant assay (ELISA) was used to assess TrkA kinase activity in the presence of inhibitors. Immulon 4HBX 384-well microtiter plates (Thermo part #8755) were coated with a 0.025 mg/mL solution of poly (Glu, Ala, Tyr; 6:3:1; Sigma P3899). Various concentrations of test compound, 2.5 nM TrkA (Invitrogen Corp., histidine-tagged recombinant human TrkA, cytoplasmic domain), and 500 μM ATP were incubated for 25 minutes at ambient temperature in the coated plates while shaking. The assay buffer consisted of 25 mM MOPS pH 7.5, 0.005% (v/v) Triton X-100 and 5 mM MgCl2. The reaction mixture was removed from the plate by washing with PBS containing 0.1% (v/v) Tween 20. The phosphorylated reaction product was detected using 0.2 μg/mL of a phosphotyrosine specific monoclonal antibody (clone PY20) conjugated to horseradish peroxidase in conjunction with the TMB Peroxidase Substrate System (KPL). After the addition of 1M phosphoric acid, the chromogenic substrate color intensity was quantitated via absorbance at 450 nm. IC50 values were calculated using either a 4 or 5-parameter logistic curve fit.

Sequence of histidine-tagged recombinant human TrkA, cytoplasmic domain (P04629 440-796): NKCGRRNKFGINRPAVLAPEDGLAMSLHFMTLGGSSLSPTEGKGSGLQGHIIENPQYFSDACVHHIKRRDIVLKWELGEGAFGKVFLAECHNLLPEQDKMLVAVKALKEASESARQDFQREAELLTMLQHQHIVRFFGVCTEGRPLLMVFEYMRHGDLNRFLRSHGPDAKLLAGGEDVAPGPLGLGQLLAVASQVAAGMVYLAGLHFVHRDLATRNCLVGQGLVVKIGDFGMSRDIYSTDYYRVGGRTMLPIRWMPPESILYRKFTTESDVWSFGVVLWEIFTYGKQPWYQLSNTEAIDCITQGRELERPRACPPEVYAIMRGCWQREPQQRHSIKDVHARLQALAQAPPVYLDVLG

Row | SMILES | IC50
1 | O=C(Nc1cnn2ccc(N3CCC[C@@H]3c3cc(F)ccc3F)nc12)C(=O)N1CC(O)C1 [Example 101, (R)—N-(5-(2-(2,5-difluorophenyl)pyrrolidin-1-yl)pyrazolo[1,5-a]pyrimidin-3-yl)-2-(3-hydroxyazetidin-1-yl)-2-oxo acetamide] | 10.1 nM
2 | O=C(Nc1cnn2ccc(N3CCC[C@@H]3c3cccc(F)c3)nc12)N1CCOCC1 [Example 9, (R)—N-(5-(2-(3-fluorophenyl)pyrrolidin-1-yl)pyrazolo[1,5-a]pyrimidin-3-yl)morpholine-4-carboxamide] | 821 nM
3 | CC1CN(C(=O)Nc2cnn3ccc(N4CCC[C@@H]4c4cc(F)ccc4F)nc23)CC(C)N1 (stereo partly shown) [Example 29] | 98 nM
4 | O=C(Nc1cnn2ccc(N3CCC[C@@H]3c3cc(F)ccc3F)nc12)c1ccc(Cl)cn1 [Example 61, (R)-5-chloro-N-(5-(2-(2,5-difluorophenyl)pyrrolidin-1-yl)pyrazolo[1,5-a]pyrimidin-3-yl)picolinamide] | 4 nM
5 | CC(C)(F)C(=O)Nc1cnn2ccc(N3CCC[C@@H]3c3cc(F)ccc3F)nc12 [Example 54, (R)—N-(5-(2-(2,5-difluorophenyl)pyrrolidin-1-yl)pyrazolo[1,5-a]pyrimidin-3-yl)-2-fluoro-2-methylpropanamide] | 14.2 nM
6 | C[C@H]1CN(C(=O)Nc2cnn3ccc(N4CCC[C@@H]4c4cc(F)ccc4Cl)nc23)CCN1 [Example 25, (S)—N-(5-((R)-2-(2-chloro-5-fluorophenyl)pyrrolidin-1-yl)pyrazolo[1,5-a]pyrimidin-3-yl)-3-methylpiperazine-1-carboxamide hydrochloride] | 82.3 nM
7 | O=C(Nc1cnn2ccc(N3CCC[C@@H]3c3cc(F)ccc3F)nc12)N1C[C@@H](O)[C@H](O)C1 [Example 15, (3R,4R)—N-(5-((R)-2-(2,5-difluorophenyl)pyrrolidin-1-yl)pyrazolo[1,5-a]pyrimidin-3-yl)-3,4-dihydroxypyrrolidine-1-carboxamide] | 13.3 nM
8 | CC(C)(C)NC(=O)Nc1cnn2ccc(N3CCC[C@@H]3c3cc(F)ccc3F)nc12 [Example 3, (R)-1-tert-butyl-3-(5-(2-(2,5-difluorophenyl)pyrrolidin-1-yl)pyrazolo[1,5-a]pyrimidin-3-yl)urea] | 22.2 nM
9 | CC1(c2cccc(F)c2)CCCN1c1ccn2ncc(NC(=O)N3CC(O)C3)c2n1 (stereo not shown) [Example 10, N-(5-(2-(3-fluorophenyl)-2-methylpyrrolidin-1-yl)pyrazolo[1,5-a]pyrimidin-3-yl)-3-hydroxyazetidine-1-carboxamide] | 188 nM
10 | O=C(Nc1cnn2ccc(N3CCC[C@@H]3c3cc(F)ccc3Cl)nc12)N1CCOCC1 [Example 23, (R)—N-(5-(2-(2-chloro-5-fluorophenyl)pyrrolidin-1-yl)pyrazolo[1,5-a]pyrimidin-3-yl)morpholine-4-carboxamide] | 41.7 nM
11 | O=C(Nc1cnn2ccc(N3CCC[C@@H]3c3cccc(F)c3)nc12)c1cc[nH]n1 [Example 74, (R)—N-(5-(2-(3-fluorophenyl)pyrrolidin-1-yl)pyrazolo[1,5-a]pyrimidin-3-yl)-1H-pyrazole-3-carboxamide] | 15.3 nM
12 | Cc1cnccc1C(=O)Nc1cnn2ccc(N3CCC[C@@H]3c3cccc(F)c3)nc12 [Example 80, (R)—N-(5-(2-(3-fluorophenyl)pyrrolidin-1-yl)pyrazolo[1,5-a]pyrimidin-3-yl)-3-methylisonicotinamide] | 320 nM
13 | C[C@H]1CN(C(=O)Nc2cnn3ccc(N4CCC[C@@H]4c4cc(F)ccc4F)nc23)CCN1C(=O)OC(C)(C)C [Example 30, (S)-tert-butyl 4-(5-((R)-2-(2,5-difluorophenyl)pyrrolidin-1-yl)pyrazolo[1,5-a]pyrimidin-3-ylcarbamoyl)-2-methylpiperazine-1-carboxylate] | 154 nM
14 | CC(C)Nc1nc(C(=O)Nc2cnn3ccc(N4CCC[C@@H]4c4cc(F)ccc4F)nc23)cs1 [Example 55, (R)—N-(5-(2-(2,5-difluorophenyl)pyrrolidin-1-yl)pyrazolo[1,5-a]pyrimidin-3-yl)-2-(isopropylamino)thiazole-4-carboxamide] | 3.1 nM
15 | N#CC1(C(=O)Nc2cnn3ccc(N4CCC[C@@H]4c4cc(F)ccc4F)nc23)CC1 [Example 52, (R)-1-cyano-N-(5-(2-(2,5-difluorophenyl)pyrrolidin-1-yl)pyrazolo[1,5-a]pyrimidin-3-yl)cyclopropanecarboxamide] | 4.2 nM
16 | O=C(Nc1cnn2ccc(N3CCC[C@@H]3c3cc(F)ccc3Cl)nc12)N1CC[C@H](O)C1 [Example 81, (S)—N-(5-((R)-2-(2-chloro-5-fluorophenyl)pyrrolidin-1-yl)pyrazolo[1,5-a]pyrimidin-3-yl)-3-hydroxypyrrolidine-1-carboxamide] | 8 nM

Row | SMILES | IC50
17 | O=C(Nc1cnn2ccc(N3CCC[C@@H]3c3cc(F)ccc3F)nc12)[C@H]1CC[C@@H](O)C1 [Example 94, (1S,3R)—N-(5-((R)-2-(2,5-difluorophenyl)pyrrolidin-1-yl)pyrazolo[1,5-a]pyrimidin-3-yl)-3-hydroxycyclopentanecarboxamide] | 20.3 nM
18 | O=C(Nc1cnn2ccc(N3CCC[C@@H]3c3cc(F)ccc3F)nc12)C1CC(O)C1 (stereo partly drawn) [Example 96, (R)—N-(5-(2-(2,5-difluorophenyl)pyrrolidin-1-yl)pyrazolo[1,5-a]pyrimidin-3-yl)-3-hydroxycyclobutanecarboxamide] | 27.4 nM
19 | O=C(Nc1ccc(F)cc1)Nc1cnn2ccc(N3CCC[C@@H]3c3cc(F)ccc3F)nc12 [Example 18, (R)-1-(5-(2-(2,5-difluorophenyl)pyrrolidin-1-yl)pyrazolo[1,5-a]pyrimidin-3-yl)-3-(4-fluorophenyl)urea] | 4.6 nM
20 | O=C(Nc1cnn2ccc(N3CCC[C@@H]3c3cncc(F)c3)nc12)N1CC[C@H](O)C1 [Example 88, (S)—N-(5-((R)-2-(5-fluoropyridin-3-yl)pyrrolidin-1-yl)pyrazolo[1,5-a]pyrimidin-3-yl)-3-hydroxypyrrolidine-1-carboxamide] | 156 nM
21 | Cn1nc(C(=O)Nc2cnn3ccc(N4CCC[C@@H]4c4cccc(F)c4)nc23)ccc1=O [Example 6, (R)—N-(5-(2-(3-fluorophenyl)pyrrolidin-1-yl)pyrazolo[1,5-a]pyrimidin-3-yl)-1-methyl-6-oxo-1,6-dihydropyridazine-3-carboxamide] | 19.2 nM
22 | C[C@H]1CN(C(=O)Nc2cnn3ccc(N4CCC[C@@H]4c4cc(F)ccc4Cl)nc23)CCN1C(=O)OC(C)(C)C [Example 24, (S)-tert-butyl 4-(5-((R)-2-(2-chloro-5-fluorophenyl)pyrrolidin-1-yl)pyrazolo[1,5-a]pyrimidin-3-ylcarbamoyl)-2-methylpiperazine-1-carboxylate] | 55 nM
23 | NC(=O)C(=O)Nc1cnn2ccc(N3CCC[C@@H]3c3cc(F)ccc3F)nc12 [Example 99, (R)—N^1-(5-(2-(2,5-difluorophenyl)pyrrolidin-1-yl)pyrazolo[1,5-a]pyrimidin-3-yl)oxalamide] | 4.65 nM
24 | O=C(Nc1cnn2ccc(N3CCC[C@@H]3c3cc(F)ccc3F)nc12)C(=O)NC1CC1 [Example 100, (R)—N^1-cyclopropyl-N2-(5-(2-(2,5-difluorophenyl)pyrrolidin-1-yl)pyrazolo[1,5-a]pyrimidin-3-yl)oxalamide] | 15.8 nM
25 | O=C(Nc1cnn2ccc(N3CCC[C@@H]3c3cc(F)ccc3F)nc12)N1C[C@@H]2C[C@H]1CO2 [Example 92, (1S,4S)—N-(5-((R)-2-(2,5-difluorophenyl)pyrrolidin-1-yl)pyrazolo[1,5-a]pyrimidin-3-yl)-2-oxa-5-azabicyclo[2.2.1]heptane-5-carboxamide] | 107 nM
26 | Cc1cnc(C(=O)Nc2cnn3ccc(N4CCC[C@@H]4c4cc(F)ccc4F)nc23)cn1 [Example 58, (R)—N-(5-(2-(2,5-difluorophenyl)pyrrolidin-1-yl)pyrazolo[1,5-a]pyrimidin-3-yl)-5-methylpyrazine-2-carboxamide] | 3.1 nM
27 | O=C(Nc1cnn2ccc(N3CCC[C@@H]3c3cc(F)ccc3C(F)(F)F)nc12)N1CCC[C@H](O)C1 [Example 87, (S)—N-(5-((R)-2-(5-fluoro-2-(trifluoromethyl)phenyl)pyrrolidin-1-yl)pyrazolo[1,5-a]pyrimidin-3-yl)-3-hydroxypiperidine-1-carboxamide] | 14.6 nM
28 | O=C(O)C(=O)Nc1cnn2ccc(N3CCC[C@@H]3c3cc(F)ccc3F)nc12 [Example 105, (R)-2-(5-(2-(2,5-difluorophenyl)pyrrolidin-1-yl)pyrazolo[1,5-a]pyrimidin-3-ylamino)-2-oxoacetic acid] | 4.7 nM
29 | O=C(Nc1cnn2ccc(N3CCC[C@@H]3c3cc(F)ccc3F)nc12)N1CCOCC1 [Example 13, (R)—N-(5-(2-(2,5-difluorophenyl)pyrrolidin-1-yl)pyrazolo[1,5-a]pyrimidin-3-yl)morpholine-4-carboxamide] | 32.2 nM
30 | O=C(Nc1cnn2ccc(N3CCC[C@@H]3c3cc(F)ccc3C(F)F)nc12)N1CC[C@H](O)C1 [Example 37, (S)—N-(5-((R)-2-(2-(difluoromethyl)-5-fluorophenyl)pyrrolidin-1-yl)pyrazolo[1,5-a]pyrimidin-3-yl)-3-hydroxypyrrolidine-1-carboxamide] | 8.7 nM
31 | Cc1cccnc1C(=O)Nc1cnn2ccc(N3CCC[C@@H]3c3cc(F)ccc3F)nc12 [Example 63, (R)—N-(5-(2-(2,5-difluorophenyl)pyrrolidin-1-yl)pyrazolo[1,5-a]pyrimidin-3-yl)-3-methylpicolinamide] | 1.7 nM
